From PubChem BioAssay (NCI)
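Abbreviation: GI50, concentration required for 50% inhibition of growth. At the TGI there is no net growth.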

Assays:
Assay in all cases: NCI tumour cell line growth inhibition, 384-well format
[1] = test system: 786-0 renal
[2] = test system: A498 renal
[3] = test system: A549 NSCLC
[4] = test system: ACHN renal
[5] = test system: BT-549 breast
[6] = test system: CAKI-1 renal
[7] = test system: CCRF-CEM leukemia
[8] = test system: COLO 205 colon
[9] = test system: DU-145 prostate
[10] = test system: EKVX NSCLC
[11] = test system: HCC-2998 colon
[12] = test system: HCT-116 colon
[13] = test system: HCT-15 colon
[14] = test system: HL-60(TB) leukemia
[15] = test system: HOP-62 NSCLC
[16] = test system: HOP-92 NSCLC
[17] = test system: HS 578T breast
[18] = test system: HT29 colon
[19] = test system: IGROV1 ovarian
[20] = test system: KM12 colon
[21] = test system: LOX IMVI melanoma
[22] = test system: M14 melanoma
[23] = test system: MALME-3M melanoma
[24] = test system: MCF7 breast
[25] = test system: MDA-MB-231 breast
[26] = test system: MDA-MB-468 breast
[27] = test system: MOLT-4 leukemia
[28] = test system: NCI-H226 lung
[29] = test system: NCI-H23 lung
[30] = test system: NCI-H322M lung
[31] = test system: NCI-H460 NSCLC
[32] = test system: NCI-H522 lung
[33] = test system: NCI/ADR-RES ovarian
[34] = test system: OVCAR-3 ovarian
[35] = test system: OVCAR-4 ovarian
[36] = test system: OVCAR-5 ovarian
[37] = test system: OVCAR-8 ovarian
[38] = test system: PC-3 prostate
[39] = test system: RPMI-8226 leukemia
[40] = test system: RXF 393 renal
[41] = test system: SF-268 CNS
[42] = test system: SF-295 CNS
[43] = test system: SF-539 CNS
[44] = test system: SK-MEL-28 melanoma
[45] = test system: SK-OV-3 ovarian
[46] = test system: SN12C renal
[47] = test system: SNB-19 CNS
[48] = test system: SNB-75 CNS
[49] = test system: SR leukemia
[50] = test system: SW-620 colon
[51] = test system: T-47D breast
[52] = test system: TK-10 renal
[53] = test system: U251 glioblastoma
[54] = test system: UACC-62 melanoma
[55] = test system: UO-31 renal

COC(=O)N[C@@H](C)CNc1nccc(-c2cn(C(C)C)nc2-c2cc(Cl)cc(NS(C)(=O)=O)c2F)n1
GI50 [1]: 7.06 µM | TGI [1]: > 73.3 µM | GI50 [2]: 1.13 µM | TGI [2]: > 100 µM | GI50 [3]: 16.3 µM | TGI [3]: > 92.6 µM | GI50 [4]: 3.54 µM | TGI [4]: > 100 µM | GI50 [5]: 38.1 µM | TGI [5]: > 100 µM | GI50 [6]: 0.728 µM | TGI [6]: > 47.9 µM | GI50 [7]: 42.2 µM | TGI [7]: > 100 µM | GI50 [8]: < 0.01 µM | GI50 [9]: 6.7 µM | TGI [9]: > 100 µM | GI50 [10]: 13.8 µM | TGI [10]: > 100 µM | GI50 [11]: 11.9 µM | TGI [11]: 39.7 µM | GI50 [12]: 1.92 µM | TGI [12]: > 71.9 µM | GI50 [13]: 9.03 µM | TGI [13]: > 100 µM | GI50 [14]: 2.06 µM | TGI [14]: 6.91 µM | GI50 [15]: 61.9 µM | TGI [15]: > 100 µM | GI50 [16]: 7.13 µM | TGI [16]: > 100 µM | GI50 [17]: 14.7 µM | TGI [17]: 40.8 µM | GI50 [18]: < 0.01 µM | TGI [18]: 23.6 µM | GI50 [19]: 0.929 µM | TGI [19]: > 100 µM | GI50 [20]: 36.5 µM | TGI [20]: > 100 µM | GI50 [21]: 0.498 µM | TGI [21]: > 61.2 µM | GI50 [22]: < 0.01 µM | TGI [22]: < 0.0175 µM | GI50 [23]: < 0.01 µM | TGI [23]: < 0.01 µM | GI50 [24]: > 100 µM | TGI [24]: > 100 µM | GI50 [25]: 3.17 µM | TGI [25]: 40.2 µM | GI50 [26]: 11.5 µM | TGI [26]: > 100 µM | GI50 [27]: 29.6 µM | TGI [27]: > 100 µM | GI50 [28]: 37 µM | TGI [28]: > 100 µM | GI50 [29]: 4.15 µM | TGI [29]: > 100 µM | GI50 [30]: 6.15 µM | TGI [30]: > 95.8 µM | GI50 [31]: 32.5 µM | TGI [31]: > 100 µM | GI50 [32]: 3.91 µM | TGI [32]: 97.9 µM | GI50 [33]: > 100 µM | TGI [33]: > 100 µM | GI50 [34]: 48.8 µM | TGI [34]: > 100 µM | GI50 [35]: > 100 µM | TGI [35]: > 100 µM | GI50 [36]: 33.2 µM | TGI [36]: > 100 µM | GI50 [37]: 38.2 µM | TGI [37]: > 100 µM | GI50 [38]: 70.9 µM | TGI [38]: > 100 µM | GI50 [39]: > 100 µM | TGI [39]: > 100 µM | GI50 [40]: 6.32 µM | TGI [40]: 34.9 µM | GI50 [41]: > 84.8 µM | TGI [41]: > 100 µM | GI50 [42]: 97.6 µM | TGI [42]: > 100 µM | GI50 [43]: 43.3 µM | TGI [43]: > 100 µM | GI50 [44]: < 0.01 µM | TGI [44]: < 0.01 µM | GI50 [45]: 0.806 µM | TGI [45]: > 100 µM | GI50 [46]: 14.9 µM | TGI [46]: > 100 µM | GI50 [47]: > 100 µM | TGI [47]: > 100 µM | GI50 [48]: 14.8 µM | TGI [48]: > 100 µM | GI50 [49]: 6.45 µM | TGI [49]: 20.6 µM | GI50 [50]: 6.22 µM | TGI [50]: > 76.8 µM | GI50 [51]: > 20 µM | TGI [51]: > 100 µM | GI50 [52]: 20.7 µM | TGI [52]: > 100 µM | GI50 [53]: 17.2 µM | TGI [53]: 65.9 µM | GI50 [54]: < 0.01 µM | TGI [54]: < 0.01 µM | GI50 [55]: 6.96 µM | TGI [55]: > 100 µM
